Columns and labels:
[1] = molecular target: T1, human VEGFR2 kinase (Homo sapiens, UniProt P35968); experiment: VEGFR2 kinase assay (HTRF); type: biochemical; conditions: Table 1
T1 construct: GST-fusion protein encoding the catalytic carboxyl-terminus of human VEGFR kinase 1, 2, or 3; made in house; host or cells: baculovirus expression system
Method: Vascular endothelial growth factor receptor kinase assays were carried out in a homogenous time-resolved fluorescence (HTRF) format in 384-well microtitre plates using a purified, baculovirus-expressed GST-fusion protein encoding the catalytic carboxyl-terminus of human VEGFR kinase 1, 2, or 3. Reactions were initiated by the addition of 10 μl of activated VEGFR kinase (1 nM, 0.1 M HEPES pH 7.5, 0.1 mg ml^−1 BSA, and 0.30 mM DTT) to 10 μl of substrate (360 nM biotin-aminohexyl-EEEEYFELVAKKKK-NH2 peptide, 75 μM ATP, 10 mM MgCl2) and 1 μl of small molecule inhibitor at various concentrations. Plates were incubated at room temperature for 60 min, and the reaction was stopped by the addition of 20 μl 100 mM EDTA. Homogenous time-resolved fluorescence reagents (20 μl 15 nM streptavidin-linked allophycocyanin, 1 nM europium-labelled anti-phosphotyrosine antibody in 0.1 M HEPES, pH 7.5, 0.1 mg ml^−1 BSA) were added and plates were incubated for a minimum of 10 min. The fluorescence at 665 nm was measured with a Victor plate reader (Wallac, Shelton, CT, USA) using a time delay of 50 μs. […] Data were fitted with a curve described by: y=((Vmax × x)/(K+x)+Y2), where Vmax is the upper asymptote, Y2 is the Y intercept, and K is the IC50.

[2] = test system: HUVEC grown in presence of VEGF; experiment: VEGF-induced HUVEC proliferation (BrdU incorporation); type: cell-based; conditions: Homo sapiens, VEGF 10 ng ml^−1, 72 h
Method: (§1) Effect of kinase inhibitors on cell proliferation was measured using BrdU incorporation method using commercially available kits (Roche Diagnostics, Indianapolis, IN, USA). Briefly, HUVEC were seeded in a medium containing 5% FBS in type 1 Collagen-coated 96-well plates and incubated overnight at 37°C, 5% CO2. The medium was aspirated from the cells, and various concentrations of kinase inhibitors in serum-free medium were added to each well. After 30 min, VEGF (10 ng ml^−1) or bFGF (0.3 ng ml^−1) was added to the wells. Cells were incubated for an additional 72 h and BrdU (10 μM) was added during the last 18–24 h of incubation. Data were fitted with a curve described by the equation, y=Vmax × (1−(x/(K+x))), where K is equal to the IC50.

[3] = test system: HUVEC grown in presence of bFGF; experiment: bFGF-induced HUVEC proliferation (BrdU incorporation); type: cell-based; conditions: Homo sapiens, bFGF 0.3 ng ml^−1, 72 h
Method: as §1

T1 sequence (P35968 834-1162 limits assumed): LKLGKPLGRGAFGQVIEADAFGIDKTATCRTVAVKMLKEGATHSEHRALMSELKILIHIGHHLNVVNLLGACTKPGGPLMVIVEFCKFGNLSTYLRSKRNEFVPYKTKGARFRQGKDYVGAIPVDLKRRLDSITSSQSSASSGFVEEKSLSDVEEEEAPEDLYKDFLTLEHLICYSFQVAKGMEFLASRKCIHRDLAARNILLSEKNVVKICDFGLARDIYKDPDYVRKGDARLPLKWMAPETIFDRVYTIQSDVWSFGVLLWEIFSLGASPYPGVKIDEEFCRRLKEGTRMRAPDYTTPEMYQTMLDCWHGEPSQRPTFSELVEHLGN

IC50 [1]: 1.1 nM
Compound: Cc1n[nH]c2cc(N(C)c3ccnc(Nc4cc(S(N)(=O)=O)ccc4Cl)n3)ccc12 [GW695612, 4-chloro-3-({4-[methyl(3-methyl-1H-indazol-6-yl)amino]pyrimidin-2-yl}amino)benzenesulphonamide]
IC50 [2]: 260 nM
IC50 [3]: 3840 nM

Source: paper PMC2409895, “Antitumour efficacy of VEGFR2 tyrosine kinase inhibitor correlates with expression of VEGF and its receptor VEGFR2 in tumour models” (British Journal of Cancer, 2004)
